Assay results reported in patent US11098040B2, “Compounds and methods of use” (Ferro Therapeutics, Inc., priority 2018, dated 2021).

Tests used:
KP4 = experiment: Cell viability assay (CellTiter Glo), pancreatic ductal adenocarcinoma KP4; type: cell-based, human; conditions: Homo sapiens, KP-4, 96 h, pancreatic cancer cell line KP4, 96 hours, CellTiter Glo; read-out: IC50 μM KP4
Protocol: (§1) Cell viability assay was performed to assess the potency of the compounds in human cancer cell lines KP4 (pancreatic ductal adenocarcinoma), MiaPaCa-2 (pancreatic carcinoma), AsPC-1 (pancreatic adenocarcinoma, ascites), 143B (osteosarcoma), and SJSA-1 (osteosarcoma). Selected compounds were also assayed in a human breast epithelial cell line MCF-10A, a nontumorigenic cell line as a control to assess differential activity. Cells at a density of 500-5,000 cells/well were seeded in 96-well plates and incubated at 37° C. overnight. A series of 9 different concentrations of compound stocks (500×) were created by 3-fold serial dilution in DMSO. These compounds were further diluted in culture media and then added to cells so that the final DMSO concentration was equal to 0.25% or less. After 96 hours of incubation, 50 μL of CellTiter Glo reagent (Promega) was added to each well and luminescence was measured after 10 minutes using EnVision (PerkinElmer). Compounds titrated from top concentration of up to 30 μM. The select compounds were tested initially from 30 μM as the top concentration in duplicates (range of 4.6 nM-30 μM). […] Luminescence from cells treated with DMSO alone was set as Max and % of inhibition was calculated as follows: Inhibition %=(Max-Sample value)/Max*100. Data was analyzed using XL-fit software (ID Business Solutions Ltd.). IC50, relative IC50, or % of top inhibition was calculated.
as §1, with “in” for “in human”, “line” for “lines”, “adenocarcinoma).” for “adenocarcinoma), MiaPaCa-2 (pancreatic carcinoma), AsPC-1 (pancreatic adenocarcinoma, ascites), 143B (osteosarcoma), and SJSA-1 (osteosarcoma). Selected compounds were also assayed in a human breast epithelial cell line MCF-10A, a nontumorigenic cell line as a control to assess differential activity.”, “1,000-10,000” for “500-5,000”, “All” for “Compounds titrated from top concentration of up to 30 μM. The select”
(§2) The results of the assay on stability in blood and IC50 values for pancreatic cancer cell line KP4 are given below in Table 24.

[1] = Whole blood stability, mouse; type: in vitro ADME
Source text: as §2

[2] = Whole blood stability, human; type: in vitro ADME
Source text: as §2

Structure (SMILES)	IC50 (KP4)	Whole Blood Stability % Remaining at 37° C. Mouse ([1]; 0 min)	Whole Blood Stability % Remaining at 37° C. Mouse ([1]; 30 min)	Whole Blood Stability % Remaining at 37° C. Mouse ([1]; 60 min)	Whole Blood Stability % Remaining at 37° C. Human ([2]; 0 min)	Whole Blood Stability % Remaining at 37° C. Human ([2]; 30 min)	Whole Blood Stability % Remaining at 37° C. Human ([2]; 60 min)
COC(=O)[C@H]1Cc2c([nH]c3ccccc23)[C@H](c2ccc(S(=O)(=O)N[C@]34C[C@H]5C[C@H](C[C@H](C5)C3)C4)cc2)N1C(=O)CCl [Compound 24]	< 0.01 µM	100.0%	62.0%	37.0%	100.0%	61.7%	50.2%
COC(=O)[C@H]1Cc2c([nH]c3ccccc23)[C@H](c2ccc(C(=O)OC(C)(C)C)cc2)N1C(=O)/C=C/CCl [Compound 25]	0.1 to 0.5 µM	100.0%	46.2%	24.4%	100.0%	55.0%	51.9%
COC(=O)[C@H]1Cc2c([nH]c3ccccc23)[C@H](c2ccc(C(=O)N3CCOCC3)cc2)N1C(=O)CCl [Compound 26]	0.01 to 0.1 µM	100.0%	67.7%	55.7%	100.0%	47.1%	22.9%
COC(=O)[C@H]1Cc2c([nH]c3ccccc23)[C@H](c2ccc(C(=O)NCCN3CCOCC3)cc2)N1C(=O)CCl [Compound 27]	0.01 to 0.1 µM	100.0%	78.2%	73.2%	100.0%	63.9%	48.3%
COC(=O)[C@H]1Cc2c([nH]c3ccccc23)[C@H](c2ccc(C(=O)N[C@]34CC5C[C@H](C[C@H](C5)C3)C4)cc2)N1C(=O)CCl [Compound 28, Methyl-(1S,3R)-1-(4-(((3R,5R,7R)-adamantan-1-yl)carbamoyl)phenyl)-2-(2-chloroacetyl)-2,3,4,9-tetrahydro-1H-pyrido[3,4-b]indole-3-carboxylate]	< 0.01 µM	100.0%	78.3%	68.9%	100.0%	73.4%	51.6%
COC(=O)[C@H]1Cc2c([nH]c3ccccc23)[C@H](c2ccc(N[C@]34CC5C[C@H](C[C@H](C5)C3)C4)cc2)N1C(=O)CCl [Compound 29]	< 0.01 µM	100.0%	61.9%	51.1%	100.0%	67.3%	49.2%
COC(=O)[C@H]1Cc2c([nH]c3ccccc23)[C@H](c2ccc(S(=O)(=O)N[C@]34C[C@H]5C[C@H](C[C@H](C5)C3)C4)cc2)N1C(=O)/C=C/CCl [Compound 30]	0.5 to 1 µM	100.0%	85.3%	75.9%	100.0%	62.1%	38.1%
COC(=O)[C@H]1Cc2c([nH]c3ccccc23)[C@H](c2ccc(C(=O)N3CCNCC3)cc2)N1C(=O)CCl [Compound 31]	0.1 to 0.5 µM	100.0%	90.0%	75.5%	100.0%	49.4%	32.6%
COC(=O)[C@H]1Cc2c([nH]c3ccccc23)[C@H](c2ccc(C(=O)N3CCC(O)CC3)cc2)N1C(=O)CCl [Compound 32]	> 1 µM	100.0%	0.0%	0.0%	100.0%	0.1%	0.1%
